Data on 24 compounds can be found in patent publication US10662156B2, “Guanidine derivative and medical use thereof” (Toray Industries, Inc., priority 2016, dated 2020).

In this experiment the target is recombinant GST fusion MALT1 (human MALT1) (Homo sapiens (Human), UniProt Q9UDY8). Put plainly: Evaluation of inhibition of protease activity of MALT1 (cleavage of fluorescent peptide substrate Ac-LRSR-AMC). The experiment is classed as biochemical. Conditions: substrate Ac-LRSR-AMC 20 μmol/L, 30° C. for 80 minutes. On the procedure: The guanidine derivative (I) or the pharmacologically acceptable salt thereof was evaluated for its inhibition of the protease activity of MALT1 in an in vitro experimental system in accordance with the method described in the literature (Cancer Cell, 2012, Vol. 22, p. 825-837). Specifically, the evaluation was conducted by measuring the degree of reduction in fluorescence value by the compound relative to elevation in fluorescence value resulting from the cleavage of a fluorescently labeled artificial peptide substrate by recombinant MALT1.
A) Preparation of Recombinant GST Fusion MALT1:
Full-length cDNA of human MALT1 gene (GenBank accession No: AB026118.1) amplified by PCR was inserted in flame to a SalI site located downstream of GST gene in a pGEX6P3 vector (GE Healthcare Japan Corp.) to prepare a vector (hereinafter, referred to as a pGEX6P3-MALT1 vector). Subsequently, E. coli for protein expression (BL21-RIL-codon plus-DE3, Agilent Technologies, Inc.) was transformed with the pGEX6P3-MALT1 vector and then analyzed by ampicillin resistance screening and colony PCR to obtain an E. coli strain expressing recombinant GST fusion MALT1. Protein expression was induced with isopropyl-(3-thiogalactopyranoside. After the expression induction, E. coli precipitates were recovered by centrifugation from the E. coli culture solution, and the E. coli precipitates were homogenized and then centrifuged to obtain a supernatant. The supernatant was purified using GSTrap FF column (GE Healthcare Japan Corp.) to obtain recombinant GST fusion MALT1.
B) Evaluation of Inhibition of Protease Activity of MALT1:
To 89 μL of an enzyme solution ([…] GST fusion MALT1, 50 mmol/L MES, 150 mmol/L NaCl, 10% sucrose, 0.1% CHAPS, 10 mmol/L dithiothreitol, and 1 mol/L tri-ammonium citrate) per specimen, 1 μL of a test compound (DMSO-diluted solution) of each concentration was added to prepare a mixed solution. The mixed solution was incubated at room temperature for 30 minutes, followed by the measurement of the fluorescence value of the mixed solution (fluorescence value of the first measurement) (Ex: 380 nm, Em: 460 nm; Envision (Perkin Elmer Inc.)). Next, 10 μL of 200 μmol/L substrate (Ac-LRSR-AMC, SM Biochemicals LLC) was added (final concentration: 20 μmol/L) to the mixed solution, and the mixture was reacted by incubation at 30° C. for 80 minutes, followed by the measurement of the fluorescence value of the reaction solution (fluorescence value of the second measurement) (Ex: 380 nm, Em: 460 nm; Envision (Perkin Elmer Inc.)). A “well nonsupplemented with the test compound (only DMSO was added), nonsupplemented with the enzyme and supplemented with the substrate”, and a “well nonsupplemented with the test compound (only DMSO was added), supplemented with the enzyme and supplemented with the substrate” were established.
The fluorescence value of the first measurement was defined as “F1”, and the fluorescence value of the second measurement was defined as “F2”. F2−F1 of the “well nonsupplemented with the test compound (only DMSO was added), nonsupplemented with the enzyme and supplemented with the substrate” was defined as “Fback”, F2−F1 of the “well nonsupplemented with the test compound (only DMSO was added), supplemented with the enzyme and supplemented with the substrate” was defined as “Fpositive”, and F2−F1 of the “well supplemented with the test compound, supplemented with the enzyme and supplemented with the substrate” was defined as “Fsample”. The rate of inhibition (%) of the protease activity of MALT1 by the test compound was calculated according to the following expression. Rate of inhibition (%)=100×(1−(Fsample−Fback)/(Fpositive−Fback))

Structures can show the parent of a compound that is named as a salt.

Sequence of recombinant GST fusion MALT1 (human MALT1) (Q9UDY8 whole entry, the tested form may be a part): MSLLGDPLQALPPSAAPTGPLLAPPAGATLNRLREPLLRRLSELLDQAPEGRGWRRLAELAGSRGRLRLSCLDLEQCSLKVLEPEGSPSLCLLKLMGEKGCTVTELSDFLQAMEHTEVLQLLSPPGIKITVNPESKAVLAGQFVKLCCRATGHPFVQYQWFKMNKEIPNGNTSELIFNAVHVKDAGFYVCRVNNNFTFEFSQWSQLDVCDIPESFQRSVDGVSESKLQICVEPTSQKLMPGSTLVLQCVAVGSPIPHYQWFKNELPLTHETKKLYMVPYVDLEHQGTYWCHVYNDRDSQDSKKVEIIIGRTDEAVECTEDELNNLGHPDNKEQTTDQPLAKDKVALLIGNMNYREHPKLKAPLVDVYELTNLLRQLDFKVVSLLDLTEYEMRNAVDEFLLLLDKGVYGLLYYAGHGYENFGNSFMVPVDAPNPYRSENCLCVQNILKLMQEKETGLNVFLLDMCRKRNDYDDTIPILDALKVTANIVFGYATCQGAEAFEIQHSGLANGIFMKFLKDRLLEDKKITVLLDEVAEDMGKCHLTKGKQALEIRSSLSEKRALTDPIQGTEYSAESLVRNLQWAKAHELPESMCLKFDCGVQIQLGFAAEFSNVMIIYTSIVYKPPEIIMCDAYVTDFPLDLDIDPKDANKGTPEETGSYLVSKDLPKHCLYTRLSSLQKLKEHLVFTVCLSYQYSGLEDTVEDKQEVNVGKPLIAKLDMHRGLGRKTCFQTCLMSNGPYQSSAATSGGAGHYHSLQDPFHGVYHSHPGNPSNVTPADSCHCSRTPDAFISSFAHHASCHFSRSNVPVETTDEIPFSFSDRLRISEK

A word on the IC50: it is the concentration needed to halve the response being measured. Consider `N/C(=N\C(=O)c1ccc(F)cc1)NCc1cnc(-c2ccc(Cl)cc2)c(-c2ccc(Cl)cc2)c1` [Compound of Example 66, N-(amino(((5,6-bis(4-chlorophenyl)pyridin-3-yl)methyl)amino)methylene)-4-fluorobenzamide], for which the IC50 is 1130 nM.

As for `N/C(=N\C(=O)Cc1ccccc1)NCc1cnc(-c2ccc(Cl)cc2)c(-c2ccc(Cl)cc2)c1` [Compound of Example 75, N-(amino(((5,6-bis(4-chlorophenyl)pyridin-3-yl)methyl)amino)methylene)-2-phenylacetamide], the IC50 was found to be 353 nM.

`N#Cc1ccc(-c2cc(CN/C(N)=N/S(=O)(=O)c3ccccc3)cnc2-c2ccc(Cl)cc2)cc1` [Compound of Example 19, N-(amino(((6-(4-chlorophenyl)-5-(4-cyanophenyl)pyridin-3-yl)methyl)amino)methylene)benzenesulfonamide]: the IC50 is 1520 nM.

As for `Cc1ccc(-c2ncc(CN/C(N)=N/S(=O)(=O)c3ccccc3)cc2-c2ccc(Cl)cc2)cc1F` [Compound of Example 12, N-(amino(((5-(4-chlorophenyl)-6-(3-fluoro-4-methylphenyl)pyridin-3-yl)methyl)amino)methylene)benzenesulfonamide], the IC50 came to 338 nM.

In the case of `N/C(=N\S(=O)(=O)c1ccccc1)NCc1cnc(-c2ccc(C(F)(F)F)cc2)c(-c2ccc(Cl)cc2)c1` [Compound of Example 11, N-(amino(((5-(4-chlorophenyl)-6-(4-(trifluoromethyl)phenyl)pyridin-3-yl)methyl)amino)methylene)benzenesulfonamide], the IC50 stood at 348 nM.

Consider `N/C(=N\S(=O)(=O)c1cccs1)NCc1cnc(-c2ccc(Cl)cc2)c(-c2ccc(Cl)cc2)c1` [Compound of Example 29, N-(amino(((5,6-bis(4-chlorophenyl)pyridin-3-yl)methyl)amino)methylene)thiophene-2-sulfonamide], for which the IC50 came to 100 nM.

On to `NC(=O)/N=C(\N)NCc1cnc(-c2ccc(Cl)cc2)c(-c2ccc(Cl)cc2)c1` [Compound of Example 41, 1-(amino(((5,6-bis(4-chlorophenyl)pyridin-3-yl)methyl)amino)methylene)urea Hydrochloride], for which the IC50 came out at 679 nM.

`COc1ccc(-c2cc(CN/C(N)=N/S(=O)(=O)c3ccccc3)cnc2-c2ccc(Cl)cc2)cc1F` [Compound of Example 37, N-(amino(((6-(4-chlorophenyl)-5-(3-fluoro-4-methoxyphenyl)pyridin-3-yl)methyl)amino)methylene)benzenesulfonamide]: the IC50 turned out to be 1270 nM.

Turning to `N/C(=N\S(=O)(=O)C1CCCC1)NCc1cnc(-c2ccc(Cl)cc2)c(-c2ccc(Cl)cc2)c1` [Compound of Example 57, N-(amino(((5,6-bis(4-chlorophenyl)pyridin-3-yl)methyl)amino)methylene)cyclopentanesulfonamide], the IC50 was 517 nM.

On to `Cc1ccc(-c2cc(CN/C(N)=N/S(=O)(=O)c3ccccc3)cnc2-c2ccc(Cl)cc2)cc1` [Compound of Example 17, N-(amino(((6-(4-chlorophenyl)-5-(4-methylphenyl)pyridin-3-yl)methyl)amino)methylene)benzenesulfonamide], for which the IC50 is 606 nM.

For the compound `N/C(=N\S(=O)(=O)c1ccc(Cl)s1)NCc1cnc(-c2ccc(Cl)cc2)c(-c2ccc(Cl)cc2)c1` [Compound of Example 54, N-(amino(((5,6-bis(4-chlorophenyl)pyridin-3-yl)methyl)amino)methylene)-5-chlorothiophene-2-sulfonamide], the IC50 was 169 nM.

Consider `CN(C)S(=O)(=O)/N=C(\N)NCc1cnc(-c2ccc(Cl)cc2)c(-c2ccc(Cl)cc2)c1` [Compound of Example 60, ((2-amino-2-(((5,6-bis(4-chlorophenyl)pyridin-3-yl)methyl)amino)-1-azavinyl)sulfonyl)dimethylamine], for which the IC50 was found to be 1320 nM.

Regarding `N#Cc1ccc(C(=O)/N=C(\N)NCc2cnc(-c3ccc(Cl)cc3)c(-c3ccc(Cl)cc3)c2)cc1` [Compound of Example 62, N-(amino(((5,6-bis(4-chlorophenyl)pyridin-3-yl)methyl)amino)methylene)-4-cyanobenzamide], the IC50 worked out at 471 nM.

`N/C(=N\S(=O)(=O)c1ccccc1)NCc1cnc(-c2ccc(Cl)cc2)c(-c2ccc(O)cc2)c1` [Compound of Example 94, N-(amino(((6-(4-chlorophenyl)-5-(4-hydroxyphenyl)pyridin-3-yl)methyl)amino)methylene)benzenesulfonamide Hydrochloride]: the IC50 was 1610 nM.

In the case of `N/C(=N\C(=O)c1ccco1)NCc1cnc(-c2ccc(Cl)cc2)c(-c2ccc(Cl)cc2)c1` [Compound of Example 78, N-(amino(((5,6-bis(4-chlorophenyl)pyridin-3-yl)methyl)amino)methylene)furan-2-carboxamide], the IC50 came to 754 nM.

For `N/C(=N\S(=O)(=O)c1ccccc1)NCc1cnc(-c2ccc(F)cc2)c(-c2ccc(Cl)cc2)c1` [Compound of Example 8, N-(amino(((5-(4-chlorophenyl)-6-(4-fluorophenyl)pyridin-3-yl)methyl)amino)methylene)benzenesulfonamide], the IC50 turned out to be 1290 nM.

Take `COCC(=O)/N=C(\N)NCc1cnc(-c2ccc(Cl)cc2)c(-c2ccc(Cl)cc2)c1` [Compound of Example 63, N-(amino(((5,6-bis(4-chlorophenyl)pyridin-3-yl)methyl)amino)methylene)-2-methoxyacetamide]: the IC50 was found to be 640 nM.

As for `N/C(=N\S(=O)(=O)c1ccccc1)NCc1cnc(-c2cccc(F)c2)c(-c2ccc(Cl)cc2)c1` [Compound of Example 9, N-(amino(((5-(4-chlorophenyl)-6-(3-fluorophenyl)pyridin-3-yl)methyl)amino)methylene)benzenesulfonamide], the IC50 was 1710 nM.

Turning to `Cc1ccc(-c2ncc(CN/C(N)=N/S(=O)(=O)c3cccs3)cc2-c2ccc(C(F)(F)F)cc2)cc1` [Compound of Example 33, N-(amino(((6-(4-methylphenyl)-5-(4-(trifluoromethyl)phenyl)pyridin-3-yl)methyl)amino)methylene)thiophene-2-sulfonamide Hydrochloride], the IC50 turned out to be 2070 nM.

In the case of `N/C(=N\C(=O)C1CCC(F)(F)CC1)NCc1cnc(-c2ccc(Cl)cc2)c(-c2ccc(Cl)cc2)c1` [Compound of Example 85, N-(amino(((5,6-bis(4-chlorophenyl)pyridin-3-yl)methyl)amino)methylene)-4,4-difluorocyclohexanecarboxamide], the IC50 was found to be 373 nM.

In the case of `N/C(=N\C(=O)c1ccsc1)NCc1cnc(-c2ccc(Cl)cc2)c(-c2ccc(Cl)cc2)c1` [Compound of Example 68, N-(amino(((5,6-bis(4-chlorophenyl)pyridin-3-yl)methyl)amino)methylene)thiophene-3-carboxamide], the IC50 stood at 570 nM.

As to `NC(=NS(=O)(=O)c1cccs1)NCc1cc(-c2ccc(Cl)cc2)c(-c2ccc(Cl)cc2)cn1` [Compound of Example 43, N-(amino(((4,5-bis(4-chlorophenyl)pyridin-2-yl)methyl)amino)methylene)thiophene-2-sulfonamide], the IC50 stood at 23 nM.

For the compound `N/C(=N\S(=O)(=O)c1cccc(Cl)c1)NCc1cnc(-c2ccc(Cl)cc2)c(-c2ccc(Cl)cc2)c1` [Compound of Example 48, N-(amino(((5,6-bis(4-chlorophenyl)pyridin-3-yl)methyl)amino)methylene)-3-chlorobenzenesulfonamide], the IC50 amounted to 333 nM.

On to `N/C(=N\S(=O)(=O)c1ccc(F)cc1)NCc1cnc(-c2ccc(Cl)cc2)c(-c2ccc(Cl)cc2)c1` [Compound of Example 28, N-(amino(((5,6-bis(4-chlorophenyl)pyridin-3-yl)methyl)amino)methylene)-4-fluorobenzenesulfonamide], for which the half-maximal inhibitory concentration (IC50) came to 356 nM.
